In ChEMBL document CHEMBL4507259 (2021):

What was measured:
[1] = target: GABA-A receptor; anion channel (Homo sapiens) (UniProt P14867+P47870+P18507+P28472+P48169+Q99928+Q9UN88+P34903+O00591+O14764+Q8N1C3+P18505+P78334+P47869+P31644+Q16445); experiment: Cl- channel (GABA-gated) CEREP ligand profiling; assay type: protein-complex assay; details: filed as antagonist; Compound concentration 10.0 uM
[2] = target: Melatonin receptor type 1B (Homo sapiens) (UniProt P49286); experiment: MT2 (ML1B) (h) CEREP ligand profiling; details: filed as agonist, Compound concentration 10.0 uM
[3] = target: T1, Alpha-2A adrenergic receptor (Homo sapiens) (UniProt P08913); experiment: alpha 2A (h) CEREP ligand profiling; details: filed as antagonist, Compound concentration 10.0 uM
T1 sequence (whole entry): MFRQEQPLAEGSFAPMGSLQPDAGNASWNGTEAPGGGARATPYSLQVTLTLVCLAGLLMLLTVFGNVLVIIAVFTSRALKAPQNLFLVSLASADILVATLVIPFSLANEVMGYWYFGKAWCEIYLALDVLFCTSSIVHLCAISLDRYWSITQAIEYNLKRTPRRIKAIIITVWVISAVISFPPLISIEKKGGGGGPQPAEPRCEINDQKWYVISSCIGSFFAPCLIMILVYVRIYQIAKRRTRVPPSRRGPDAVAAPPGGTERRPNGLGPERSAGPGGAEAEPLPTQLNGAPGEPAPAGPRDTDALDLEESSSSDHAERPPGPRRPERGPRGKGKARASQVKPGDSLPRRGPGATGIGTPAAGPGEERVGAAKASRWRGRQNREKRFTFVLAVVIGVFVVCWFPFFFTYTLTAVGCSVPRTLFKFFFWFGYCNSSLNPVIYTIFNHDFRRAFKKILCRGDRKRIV

[4] = target: Endothelin-1 receptor (Homo sapiens) (UniProt P25101); experiment: ETA (h) CEREP ligand profiling; details: filed as agonist, Compound concentration 10.0 uM
[5] = target: Ankyrin repeat and protein kinase domain-containing protein 1 (Homo sapiens) (UniProt Q8NFD2); details: Compound concentration 1000.0 nM
[6] = target: Citron Rho-interacting kinase (Homo sapiens) (UniProt O14578); details: Compound concentration 1000.0 nM
[7] = target: Casein kinase I isoform delta (Homo sapiens) (UniProt P48730); details: Compound concentration 1000.0 nM
[8] = target: Dual specificity tyrosine-phosphorylation-regulated kinase 1A (Homo sapiens) (UniProt Q13627); details: Compound concentration 1000.0 nM
[9] = system: Epidermal growth factor receptor (Homo sapiens), P00533 [UNDEFINED MUTATION]; details: Compound concentration 1000.0 nM
[10] = target: Vascular endothelial growth factor receptor 1 (Homo sapiens) (UniProt P17948); details: Compound concentration 1000.0 nM
[11] = system: Receptor-type tyrosine-protein kinase FLT3 (Homo sapiens), P36888 [D835Y]; details: Compound concentration 1000.0 nM
[12] = target: Mitogen-activated protein kinase 10 (Homo sapiens) (UniProt P53779); details: Compound concentration 1000.0 nM
[13] = system: Mast/stem cell growth factor receptor Kit (Homo sapiens), P10721 [L576P]; details: Compound concentration 1000.0 nM
[14] = target: Tyrosine-protein kinase Lyn (Homo sapiens) (UniProt P07948); details: Compound concentration 1000.0 nM
[15] = target: Mitogen-activated protein kinase kinase kinase kinase 2 (Homo sapiens) (UniProt Q12851); details: Compound concentration 1000.0 nM
[16] = target: Serine/threonine-protein kinase Nek2 (Homo sapiens) (UniProt P51955); details: Compound concentration 1000.0 nM
[17] = target: Serine/threonine-protein kinase Nek5 (Homo sapiens) (UniProt Q6P3R8); details: Compound concentration 1000.0 nM
[18] = target: Mitogen-activated protein kinase kinase kinase 14 (Homo sapiens) (UniProt Q99558); details: Compound concentration 1000.0 nM
[19] = target: Phosphatidylinositol 4-phosphate 3-kinase C2 domain-containing subunit beta (Homo sapiens) (UniProt O00750); details: Compound concentration 1000.0 nM
[20] = target: Phosphatidylinositol 3-kinase C2 domain-containing subunit gamma (Homo sapiens) (UniProt O75747); details: Compound concentration 1000.0 nM
[21] = system: Phosphatidylinositol 4,5-bisphosphate 3-kinase catalytic subunit alpha isoform (Homo sapiens), P42336 [H1047L]; details: Compound concentration 1000.0 nM
[22] = system: Phosphatidylinositol 4,5-bisphosphate 3-kinase catalytic subunit alpha isoform (Homo sapiens), P42336 [Q546K]; details: Compound concentration 1000.0 nM
[23] = target: Serine/threonine-protein kinase PknB (Mycobacterium tuberculosis) (UniProt P9WI81); details: Compound concentration 1000.0 nM
[24] = target: SRSF protein kinase 2 (Homo sapiens) (UniProt P78362); details: Compound concentration 1000.0 nM
[25] = target: Serine/threonine-protein kinase 36 (Homo sapiens) (UniProt Q9NRP7); details: Compound concentration 1000.0 nM
[26] = target: Tyrosine-protein kinase Tec (Homo sapiens) (UniProt P42680); details: Compound concentration 1000.0 nM
[27] = target: Sodium-dependent serotonin transporter (Homo sapiens, UniProt P31645); details: Compound concentration 10.0 uM
[28] = target: Kappa-type opioid receptor (Homo sapiens) (UniProt P41145); details: Compound concentration 10.0 uM
[29] = target: Histamine H4 receptor (Homo sapiens) (UniProt Q9H3N8); details: Compound concentration 10.0 uM
[30] = target: Alpha-1D adrenergic receptor (Homo sapiens) (UniProt P25100); details: Compound concentration 10.0 uM

Sequence of Epidermal growth factor receptor (Homo sapiens), P00533 [UNDEFINED MUTATION] (P00533 whole entry, looked up, change not shown): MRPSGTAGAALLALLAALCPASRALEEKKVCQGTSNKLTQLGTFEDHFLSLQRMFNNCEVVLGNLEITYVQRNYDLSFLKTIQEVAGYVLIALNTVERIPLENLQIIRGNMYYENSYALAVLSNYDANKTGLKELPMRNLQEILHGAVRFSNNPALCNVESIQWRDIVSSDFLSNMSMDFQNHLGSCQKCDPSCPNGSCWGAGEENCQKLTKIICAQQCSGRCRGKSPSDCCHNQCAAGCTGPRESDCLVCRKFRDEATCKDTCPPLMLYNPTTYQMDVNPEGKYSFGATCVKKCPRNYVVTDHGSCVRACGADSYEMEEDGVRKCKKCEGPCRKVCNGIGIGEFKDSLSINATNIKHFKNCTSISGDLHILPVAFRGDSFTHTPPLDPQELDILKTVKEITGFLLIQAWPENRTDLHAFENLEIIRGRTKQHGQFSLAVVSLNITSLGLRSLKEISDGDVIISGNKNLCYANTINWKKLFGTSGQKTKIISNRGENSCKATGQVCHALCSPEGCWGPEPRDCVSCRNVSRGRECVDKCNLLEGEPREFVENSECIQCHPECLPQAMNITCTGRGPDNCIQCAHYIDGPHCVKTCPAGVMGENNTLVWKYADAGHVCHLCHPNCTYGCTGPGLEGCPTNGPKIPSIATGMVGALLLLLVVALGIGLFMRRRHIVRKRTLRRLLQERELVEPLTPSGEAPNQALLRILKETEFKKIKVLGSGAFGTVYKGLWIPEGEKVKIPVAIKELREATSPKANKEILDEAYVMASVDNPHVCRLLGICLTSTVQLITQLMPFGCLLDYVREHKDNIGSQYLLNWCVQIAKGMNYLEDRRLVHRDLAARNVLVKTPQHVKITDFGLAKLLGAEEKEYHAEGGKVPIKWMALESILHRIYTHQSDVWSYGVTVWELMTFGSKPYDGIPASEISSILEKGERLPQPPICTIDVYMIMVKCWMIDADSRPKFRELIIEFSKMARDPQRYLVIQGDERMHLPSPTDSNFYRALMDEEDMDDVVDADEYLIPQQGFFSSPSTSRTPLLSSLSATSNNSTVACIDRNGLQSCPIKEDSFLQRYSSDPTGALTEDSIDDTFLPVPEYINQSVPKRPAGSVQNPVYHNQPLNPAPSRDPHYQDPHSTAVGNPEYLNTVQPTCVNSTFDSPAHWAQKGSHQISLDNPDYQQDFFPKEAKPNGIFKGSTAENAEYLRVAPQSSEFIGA
Sequence of Kappa-type opioid receptor (Homo sapiens) (P41145 whole entry): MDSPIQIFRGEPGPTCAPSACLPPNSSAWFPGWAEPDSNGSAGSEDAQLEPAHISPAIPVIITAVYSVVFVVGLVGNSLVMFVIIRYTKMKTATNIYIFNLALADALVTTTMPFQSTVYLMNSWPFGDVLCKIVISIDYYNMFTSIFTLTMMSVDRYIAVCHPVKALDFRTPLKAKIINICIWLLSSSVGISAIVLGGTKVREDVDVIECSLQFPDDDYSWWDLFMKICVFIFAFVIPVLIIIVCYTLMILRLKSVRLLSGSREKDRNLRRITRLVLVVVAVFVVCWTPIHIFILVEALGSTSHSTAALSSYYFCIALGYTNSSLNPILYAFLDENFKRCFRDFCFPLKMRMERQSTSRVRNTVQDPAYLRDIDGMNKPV
Sequence of Phosphatidylinositol 4,5-bisphosphate 3-kinase catalytic subunit alpha isoform (Homo sapiens), P42336 [H1047L] (P42336 whole entry H1047L, canonical isoform): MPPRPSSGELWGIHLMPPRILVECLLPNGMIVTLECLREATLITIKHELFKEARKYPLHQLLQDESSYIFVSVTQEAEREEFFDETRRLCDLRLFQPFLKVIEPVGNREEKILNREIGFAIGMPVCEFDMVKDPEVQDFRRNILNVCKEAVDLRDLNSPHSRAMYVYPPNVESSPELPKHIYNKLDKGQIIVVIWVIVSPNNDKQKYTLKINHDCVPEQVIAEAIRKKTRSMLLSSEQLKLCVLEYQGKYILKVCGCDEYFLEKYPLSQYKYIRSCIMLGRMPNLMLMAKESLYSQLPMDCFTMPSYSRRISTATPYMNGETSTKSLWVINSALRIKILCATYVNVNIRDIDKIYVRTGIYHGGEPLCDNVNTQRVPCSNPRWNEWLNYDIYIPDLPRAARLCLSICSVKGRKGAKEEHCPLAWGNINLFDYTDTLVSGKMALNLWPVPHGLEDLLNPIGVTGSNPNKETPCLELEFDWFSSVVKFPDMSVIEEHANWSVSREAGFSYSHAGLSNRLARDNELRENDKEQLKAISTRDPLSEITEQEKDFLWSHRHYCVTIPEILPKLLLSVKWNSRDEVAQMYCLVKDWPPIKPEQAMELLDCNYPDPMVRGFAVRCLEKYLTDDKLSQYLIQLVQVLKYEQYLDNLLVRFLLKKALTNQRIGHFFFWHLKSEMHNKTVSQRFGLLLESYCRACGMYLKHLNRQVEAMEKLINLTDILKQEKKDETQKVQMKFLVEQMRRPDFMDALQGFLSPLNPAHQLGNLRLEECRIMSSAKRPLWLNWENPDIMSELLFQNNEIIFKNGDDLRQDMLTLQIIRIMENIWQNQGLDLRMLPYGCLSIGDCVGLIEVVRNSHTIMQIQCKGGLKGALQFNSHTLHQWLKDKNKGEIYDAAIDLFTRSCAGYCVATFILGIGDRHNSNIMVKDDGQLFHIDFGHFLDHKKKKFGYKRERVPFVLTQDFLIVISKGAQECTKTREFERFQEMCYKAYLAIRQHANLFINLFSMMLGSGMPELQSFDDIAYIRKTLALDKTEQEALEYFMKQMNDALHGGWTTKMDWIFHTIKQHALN
Sequence of Mitogen-activated protein kinase 10 (Homo sapiens) (P53779 whole entry): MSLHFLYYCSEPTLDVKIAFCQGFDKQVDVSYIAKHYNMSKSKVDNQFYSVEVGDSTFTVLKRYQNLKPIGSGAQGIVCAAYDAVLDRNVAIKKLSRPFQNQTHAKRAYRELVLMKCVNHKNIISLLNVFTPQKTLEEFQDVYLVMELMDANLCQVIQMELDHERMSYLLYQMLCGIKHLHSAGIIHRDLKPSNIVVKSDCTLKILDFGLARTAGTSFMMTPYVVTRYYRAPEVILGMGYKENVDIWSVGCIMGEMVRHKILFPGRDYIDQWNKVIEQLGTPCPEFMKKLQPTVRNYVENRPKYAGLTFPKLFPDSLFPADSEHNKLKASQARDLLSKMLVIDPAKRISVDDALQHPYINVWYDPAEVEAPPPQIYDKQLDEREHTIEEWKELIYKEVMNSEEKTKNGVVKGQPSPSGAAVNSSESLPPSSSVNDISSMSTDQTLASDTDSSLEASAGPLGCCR
Sequence of Phosphatidylinositol 4-phosphate 3-kinase C2 domain-containing subunit beta (Homo sapiens) (O00750 whole entry, the tested form may be a part): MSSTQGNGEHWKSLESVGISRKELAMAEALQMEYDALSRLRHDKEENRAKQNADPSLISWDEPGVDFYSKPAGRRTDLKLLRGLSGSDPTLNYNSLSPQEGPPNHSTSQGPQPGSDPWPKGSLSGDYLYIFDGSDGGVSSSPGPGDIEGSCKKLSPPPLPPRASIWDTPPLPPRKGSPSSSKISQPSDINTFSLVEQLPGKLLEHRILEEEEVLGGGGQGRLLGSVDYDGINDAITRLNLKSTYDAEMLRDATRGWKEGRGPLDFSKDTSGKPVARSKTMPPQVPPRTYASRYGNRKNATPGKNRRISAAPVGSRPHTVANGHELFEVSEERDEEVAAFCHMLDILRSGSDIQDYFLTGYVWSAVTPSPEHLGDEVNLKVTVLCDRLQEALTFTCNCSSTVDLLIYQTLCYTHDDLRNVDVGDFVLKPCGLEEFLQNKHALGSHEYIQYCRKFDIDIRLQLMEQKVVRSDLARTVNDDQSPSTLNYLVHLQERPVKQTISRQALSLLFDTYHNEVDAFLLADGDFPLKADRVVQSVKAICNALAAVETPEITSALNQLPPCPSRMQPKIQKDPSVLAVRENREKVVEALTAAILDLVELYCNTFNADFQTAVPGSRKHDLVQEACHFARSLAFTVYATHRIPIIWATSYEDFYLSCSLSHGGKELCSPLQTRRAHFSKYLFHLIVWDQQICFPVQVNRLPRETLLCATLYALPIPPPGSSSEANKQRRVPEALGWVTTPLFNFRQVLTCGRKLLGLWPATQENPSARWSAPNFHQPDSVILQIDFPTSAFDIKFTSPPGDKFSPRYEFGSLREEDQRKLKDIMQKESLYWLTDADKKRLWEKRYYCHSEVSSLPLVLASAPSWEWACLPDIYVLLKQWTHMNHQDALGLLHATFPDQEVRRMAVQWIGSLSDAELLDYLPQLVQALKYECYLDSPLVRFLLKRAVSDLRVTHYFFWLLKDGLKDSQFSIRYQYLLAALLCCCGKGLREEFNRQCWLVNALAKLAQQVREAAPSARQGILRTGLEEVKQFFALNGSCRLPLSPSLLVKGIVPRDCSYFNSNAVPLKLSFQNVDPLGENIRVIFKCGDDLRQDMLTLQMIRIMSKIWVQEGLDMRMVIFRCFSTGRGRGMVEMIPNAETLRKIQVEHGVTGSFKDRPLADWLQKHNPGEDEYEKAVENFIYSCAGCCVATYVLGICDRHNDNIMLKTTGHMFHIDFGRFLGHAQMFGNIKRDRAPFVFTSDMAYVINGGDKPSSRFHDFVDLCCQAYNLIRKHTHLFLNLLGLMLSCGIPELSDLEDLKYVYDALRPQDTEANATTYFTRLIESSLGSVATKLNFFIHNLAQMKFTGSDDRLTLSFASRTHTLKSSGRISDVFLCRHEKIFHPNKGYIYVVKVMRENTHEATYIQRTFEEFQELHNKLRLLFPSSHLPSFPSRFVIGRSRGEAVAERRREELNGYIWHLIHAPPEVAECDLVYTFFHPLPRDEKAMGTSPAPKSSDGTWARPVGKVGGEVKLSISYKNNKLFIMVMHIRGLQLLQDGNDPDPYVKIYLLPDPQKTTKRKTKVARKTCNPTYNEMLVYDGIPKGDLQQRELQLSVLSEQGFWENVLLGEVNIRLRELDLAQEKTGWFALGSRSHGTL
Sequence of Phosphatidylinositol 4,5-bisphosphate 3-kinase catalytic subunit alpha isoform (Homo sapiens), P42336 [Q546K] (P42336 whole entry Q546K, canonical isoform): as the sequence (P42336 whole entry H1047L, canonical isoform) above, with Q546K, L1047H counted along it

| SMILES | inhibition [1] [%] | inhibition [2] [%] | inhibition [3] [%] | inhibition [4] [%] | residual activity [5] [%] | residual activity [6] [%] | residual activity [7] [%] | residual activity [8] [%] | residual activity [9] [%] | residual activity [10] [%] | residual activity [11] [%] | residual activity [12] [%] | residual activity [13] [%] | residual activity [14] [%] | residual activity [15] [%] | residual activity [16] [%] | residual activity [17] [%] | residual activity [18] [%] | residual activity [19] [%] | residual activity [20] [%] | also measured |
| --- | --- | --- | --- | --- | --- | --- | --- | --- | --- | --- | --- | --- | --- | --- | --- | --- | --- | --- | --- | --- | --- |
| CNC(=O)Nc1ccc2c(c1)[C@@]1(CC2)OC(=O)N(CC(=O)N(Cc2ccc(F)cc2)[C@@H](C)C(F)(F)F)C1=O [A-486] | 41 | 8 | -7 | -1 | 61 | 100 | 100 | 77 | 100 | 100 | 96 | 67 | 81 | 100 | 92 | 100 | 95 | 68 | 99 | 97 | residual activity [21]: 96%; residual activity [22]: 81%; residual activity [23]: 84%; residual activity [24]: 100%; residual activity [25]: 100%; residual activity [26]: 100%; inhibition [27]: 31%; inhibition [28]: 8.21%; inhibition [29]: 5.16%; inhibition [30]: 9.73% |
| CNC(=O)Nc1ccc2c(c1)CC[C@@]21OC(=O)N(CC(=O)N(Cc2ccc(F)cc2)[C@@H](C)C(F)(F)F)C1=O [A-485] | 47 | 12 | 11 | 3 | 81 | 92 | 99 | 64 | 63 | 100 | 100 | 73 | 100 | 89 | 76 | 100 | 100 | 67 | 100 | 75 | residual activity [21]: 95%; residual activity [22]: 79%; residual activity [23]: 83%; residual activity [24]: 100%; residual activity [25]: 77%; residual activity [26]: 90%; inhibition [27]: 95.6%; inhibition [28]: 18.5%; inhibition [29]: 10.1%; inhibition [30]: -1.58% |
